In patent publication US20180303086A1, “An Antimicrobial Composition” (Conopco, Inc., d/b/a UNILEVER, priority 2015, published 2018):

Assay: Solubility product and silver ion solubility of silver compounds in water at 25° C.
Format: physicochemical
Conditions: calculated from Ksp, [Ag+]=(Ksp·x)^(1/(x+1))
Text: More particularly, silver ion solubility [Ag+], a value given in mol/L may be calculated using the formula: […]

[Cl][Ag] [Silver chloride]
Silver Ion Solubility [Ag+]: 13 µM
